In the test the test system is Herpes simplex Typ 1. Briefly: In vivo test: NMRI mice infected intraperitoneally with Herpes simplex type 1, treated i.p. twice daily for 5 days, survival rate. The settings on record: Herpes simplex Typ 1 an der NMRI-Maus. The source says: NMRI-Mäuse, spezifisch pathogenfrei, im Gewicht von etwa 15 g wurden intraperitoneal mit Herpes simplex Typ 1 infiziert und anschließend mit den beschriebenen Verbindungen intraperitoneal therapiert. Als Vergleich diente stets Acyclovir (ACV). Die Behandlung erfolgte zweimal täglich über 5 Tage, beginnend nach der Infektion. Der Behandlungserfolg wurde anhand des Krankheitsverlaufes und der Überlebensrate gegenüber den unbehandelten Infektionskontrollen bestimmt. Letztere erhielten anstelle der zu prüfenden Verbindungen eine wasserlösliche Methylhydroxyäthylcellulose (Viskosität […] in 2 %iger Lösung) (^(R)Tylose MH 300 P) appliziert.
Die chemaotherapeutische Wirkung erfindungsgemäßer Verbindungen ist aus Tabelle 1 ersichtlich.

Setting [1] is: Dosierung 10 x 0,2 mg/Maus i.p.
Where [2] appears, read: Dosierung 10 x 0,6 mg/Maus i.p.

Take `CC(=O)OCC(CN=[N+]=[N-])OCn1cnc2c(=O)[nH]c(N)nc21` (racemic) [Verbindung 9, 9-(1-Azidomethyl-2-acetoxyäthoxymethyl)-guanin]: the “Mittlere Überlebensrate x/10” value by setting is: under setting [1], 9/10; under setting [2], 9/10.

With `CC(=O)OCC(COC(C)C)OCn1cnc2c(=O)[nH]c(N)nc21` (racemic) [Verbindung 20, 9-(1-Isopropoxymethyl-2-acetoxyäthoxymethyl)-guanin], the “Mittlere Überlebensrate x/10” value is listed as 10/10 under setting [1] and 10/10 under setting [2].

The values above are taken from EP0400686A1, “2-Amino-9-[1,3bis-(isopropoxy)-propyl-2-oxymethyl]-purine, its utilization and medicaments containing it” (HOECHST AKTIENGESELLSCHAFT, priority 1985, dated 1987).
